Laboratory results published in patent EP0165775A1, “Antifungal azole compounds” (IMPERIAL CHEMICAL INDUSTRIES PLC, priority 1984, dated 1985).

Test system: Candida albicans and Trichophyton mentagrophytes var. quinkeanum
Test: animal or person
Type: in vivo
Conditions: 168 h; female mice, oral dosing twice on day 0 and once daily on days 1-4; skin lesions scored and vaginal samples cultured on day 7; read-out: minimum effective dose (MED)
Description: The following Monday (day 0) they are clipped on the back and then dosed orally with test compounds. They are then inoculated with Candida albicans in the vagina and Trichophyton mentagrophytes var. quinkeanum on the back, and then given a second dose of the same compound. Dosing is repeated once daily on days 1-4. On day 7 skin lesions are scored visually and vaginal samples taken for culture on agar. Groups of 5 mice are used and compounds are dosed initially at a level of 250mg./kg. The dose is then reduced sequentially until a minimum effective dose (MED) is found.

OC(Cn1cncn1)(Cn1cnc(Br)n1)c1ccc(F)cc1F (stereo not drawn) [Example 1, 1-(3-bromo-1,2,4-triazol-1-yl)-2-(2,4-difluorophenyl)-3-(1,2,4-triazol-l-yl)propan-2-ol]
minimal effective dose: 2.5 mg/kg
